In patent US20160341718A1, “METHODS FOR TESTING T CELL PRIMING EFFICACY IN A SUBJECT” (priority 2014, published 2016):

System: naïve ELA-specific CD8+ T cell precursors in HLA-A2+ PBMCs
Experiment: In vitro priming of ELA-specific CD8+ T cells from unfractionated PBMCs, ELA/HLA-A2 tetramer enumeration and CD45RA/CCR7 phenotype
Format: cell-based, human
Conditions: day 10 after priming of HLA-A2+ PBMCs with ELA-20 1 μM
Source text: Naïve precursors specific for the HLA-A*02:01-restricted epitope [sequence] […] The frequency, phenotype and functional profiling of ELA-specific CD8+ T cells were typically determined on day 10 or 11. Purified naïve and memory CD8+ T cell subsets for priming experiments were obtained using T Cell Enrichment Column Kits (R&D Systems).
ELA-specific CD8^+ T cells were quantified by flow cytometry using fluorochrome-labeled ELA/HLA-A*02:01 tetramers (FIG. 2A). […] For this purpose, we mixed purified naïve or memory CD8^+ T cells separately with autologous CD8-depleted PBMCs to initiate priming (FIG. 2B).
Moreover, to ensure optimal immunogenicity, we used the heteroclitic sequence [sequence]

lipopolysaccharide [TLR4L]
magnitude of primed/expanded ELA tetramer+ CD8+ T cells: only marginal effects
